Results: the kinase profiling compilation of Christmann-Franck et al. (2016)
One block for each compound: values may come before it.

What was measured:
Experiment in all cases: KINOMEscan competition binding
[1] = tested on: EGFR (human), P00533 [752-759 del]; settings: compound 10.0 µM
FLT3 (human) = FLT3 (human) (UniProt P36888); settings: compound 10.0 µM
FGFR4 (human) = FGFR4 (human) (UniProt P22455); settings: compound 10.0 µM
CDK2 (human) = CDK2 (human) (UniProt P24941); settings: compound 10.0 µM
[2] = tested on: RET (human), P07949 [M918T]; settings: compound 10.0 µM
SYK (human) = SYK (human) (UniProt P43405); settings: compound 10.0 µM
MYLK2 (human) = MYLK2 (human) (UniProt Q9H1R3); settings: compound 10.0 µM
PTK6 (human) = PTK6 (human) (UniProt Q13882); settings: compound 10.0 µM
PDGFRB (human) = PDGFRB (human) (UniProt P09619); settings: compound 10.0 µM
[3] = tested on: FLT3 (human), P36888 [D835H]; settings: compound 10.0 µM
MAPK9 (human) = MAPK9 (human) (UniProt P45984); settings: compound 10.0 µM
[4] = tested on: KIT (human), P10721 [V559D/T670I]; settings: compound 10.0 µM
MAPK14 (human) = MAPK14 (human) (UniProt Q16539); settings: compound 10.0 µM
[5] = target: JAK1 JH2 pseudokinase (human) (UniProt P23458); settings: compound 10.0 µM
EPHA8 (human) = EPHA8 (human) (UniProt P29322); settings: compound 10.0 µM
PTK2B (human) = PTK2B (human) (UniProt Q14289); settings: compound 10.0 µM
[6] = tested on: EGFR (human), P00533 [L861Q]; settings: compound 10.0 µM
EGFR (human) = EGFR (human) (UniProt P00533); settings: compound 10.0 µM
CDK18 (human) = CDK18 (human) (UniProt Q07002); settings: compound 10.0 µM
PLK1 (human) = PLK1 (human) (UniProt P53350); settings: compound 10.0 µM
MAPK7 (human) = MAPK7 (human) (UniProt Q13164); settings: compound 10.0 µM
EIF2AK2 (human) = EIF2AK2 (human) (UniProt P19525); settings: compound 10.0 µM
CLK4 (human) = CLK4 (human) (UniProt Q9HAZ1); settings: compound 10.0 µM
ACVR2A (human) = ACVR2A (human) (UniProt P27037); settings: compound 10.0 µM
NEK7 (human) = NEK7 (human) (UniProt Q8TDX7); settings: compound 10.0 µM
PIM3 (human) = PIM3 (human) (UniProt Q86V86); settings: compound 10.0 µM
MAPKAPK5 (human) = MAPKAPK5 (human) (UniProt Q8IW41); settings: compound 10.0 µM
PAK4 (human) = PAK4 (human) (UniProt O96013); settings: compound 10.0 µM
CAMKK1 (human) = CAMKK1 (human) (UniProt Q8N5S9); settings: compound 10.0 µM
SIK2 (human) = SIK2 (human) (UniProt Q9H0K1); settings: compound 10.0 µM
PRKCQ (human) = PRKCQ (human) (UniProt Q04759); settings: compound 10.0 µM
MELK (human) = MELK (human) (UniProt Q14680); settings: compound 10.0 µM
AKT1 (human) = AKT1 (human) (UniProt P31749); settings: compound 10.0 µM
ULK1 (human) = ULK1 (human) (UniProt O75385); settings: compound 10.0 µM
EPHA6 (human) = EPHA6 (human) (UniProt Q9UF33); settings: compound 10.0 µM
BTK (human) = BTK (human) (UniProt Q06187); settings: compound 10.0 µM
MAPK1 (human) = MAPK1 (human) (UniProt P28482); settings: for kinase still bound, per cent of control: compound 10.0 µM
AAK1 (human) = AAK1 (human) (UniProt Q2M2I8); settings: compound 10.0 µM
SRPK1 (human) = SRPK1 (human) (UniProt Q96SB4); settings: compound 10.0 µM
CLK1 (human) = CLK1 (human) (UniProt P49759); settings: compound 10.0 µM
RPS6KA1 KD1 (human) = RPS6KA1 KD1 (human) (UniProt Q15418); settings: compound 10.0 µM
IGF1R (human) = IGF1R (human) (UniProt P08069); settings: compound 10.0 µM

Chain of PLK1 (human) (P53350 whole entry, looked up): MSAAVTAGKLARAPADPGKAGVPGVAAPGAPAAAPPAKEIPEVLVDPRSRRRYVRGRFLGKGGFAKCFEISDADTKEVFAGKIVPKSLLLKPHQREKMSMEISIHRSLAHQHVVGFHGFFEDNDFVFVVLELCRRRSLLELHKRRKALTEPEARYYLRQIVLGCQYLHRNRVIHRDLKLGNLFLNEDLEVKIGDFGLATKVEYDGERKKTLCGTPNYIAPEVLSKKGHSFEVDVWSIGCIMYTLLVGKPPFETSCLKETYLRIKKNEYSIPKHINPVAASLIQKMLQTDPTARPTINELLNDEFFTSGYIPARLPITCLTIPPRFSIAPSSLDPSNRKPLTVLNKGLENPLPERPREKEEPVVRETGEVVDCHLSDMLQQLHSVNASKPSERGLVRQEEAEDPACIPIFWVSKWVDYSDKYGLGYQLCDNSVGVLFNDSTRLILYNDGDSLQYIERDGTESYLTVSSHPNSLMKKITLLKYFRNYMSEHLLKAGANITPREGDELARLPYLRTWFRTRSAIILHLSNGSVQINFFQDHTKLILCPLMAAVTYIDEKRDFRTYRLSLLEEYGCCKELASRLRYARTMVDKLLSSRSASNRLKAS
Chain of BTK (human) (Q06187 whole entry, looked up): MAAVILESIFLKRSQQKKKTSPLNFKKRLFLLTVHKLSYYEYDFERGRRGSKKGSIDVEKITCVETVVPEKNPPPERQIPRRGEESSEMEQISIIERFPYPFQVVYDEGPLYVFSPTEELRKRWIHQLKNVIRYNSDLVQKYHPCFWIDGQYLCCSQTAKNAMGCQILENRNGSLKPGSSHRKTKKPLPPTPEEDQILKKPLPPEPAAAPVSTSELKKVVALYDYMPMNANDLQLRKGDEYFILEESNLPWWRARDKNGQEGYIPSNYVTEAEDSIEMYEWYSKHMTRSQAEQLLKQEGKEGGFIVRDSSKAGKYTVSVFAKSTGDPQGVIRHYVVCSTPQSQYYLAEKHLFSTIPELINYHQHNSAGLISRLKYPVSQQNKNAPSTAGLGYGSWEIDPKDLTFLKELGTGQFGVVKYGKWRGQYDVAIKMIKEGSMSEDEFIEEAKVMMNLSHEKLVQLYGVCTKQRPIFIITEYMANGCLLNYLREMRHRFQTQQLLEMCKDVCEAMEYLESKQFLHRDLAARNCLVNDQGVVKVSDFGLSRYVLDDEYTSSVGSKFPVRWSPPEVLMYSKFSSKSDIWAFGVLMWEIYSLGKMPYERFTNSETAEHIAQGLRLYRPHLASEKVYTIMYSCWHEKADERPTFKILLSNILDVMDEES
Chain of MAPK14 (human) (Q16539 whole entry, looked up): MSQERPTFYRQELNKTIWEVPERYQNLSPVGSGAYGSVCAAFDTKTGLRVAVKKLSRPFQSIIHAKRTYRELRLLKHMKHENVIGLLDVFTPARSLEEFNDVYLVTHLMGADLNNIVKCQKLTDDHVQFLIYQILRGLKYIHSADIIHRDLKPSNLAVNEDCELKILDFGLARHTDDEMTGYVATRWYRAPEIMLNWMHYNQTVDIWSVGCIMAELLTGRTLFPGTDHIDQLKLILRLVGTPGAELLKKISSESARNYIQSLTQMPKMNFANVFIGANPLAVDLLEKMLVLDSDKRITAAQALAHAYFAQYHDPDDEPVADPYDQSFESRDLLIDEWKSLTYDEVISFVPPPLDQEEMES
Chain of EPHA8 (human) (P29322 whole entry, looked up): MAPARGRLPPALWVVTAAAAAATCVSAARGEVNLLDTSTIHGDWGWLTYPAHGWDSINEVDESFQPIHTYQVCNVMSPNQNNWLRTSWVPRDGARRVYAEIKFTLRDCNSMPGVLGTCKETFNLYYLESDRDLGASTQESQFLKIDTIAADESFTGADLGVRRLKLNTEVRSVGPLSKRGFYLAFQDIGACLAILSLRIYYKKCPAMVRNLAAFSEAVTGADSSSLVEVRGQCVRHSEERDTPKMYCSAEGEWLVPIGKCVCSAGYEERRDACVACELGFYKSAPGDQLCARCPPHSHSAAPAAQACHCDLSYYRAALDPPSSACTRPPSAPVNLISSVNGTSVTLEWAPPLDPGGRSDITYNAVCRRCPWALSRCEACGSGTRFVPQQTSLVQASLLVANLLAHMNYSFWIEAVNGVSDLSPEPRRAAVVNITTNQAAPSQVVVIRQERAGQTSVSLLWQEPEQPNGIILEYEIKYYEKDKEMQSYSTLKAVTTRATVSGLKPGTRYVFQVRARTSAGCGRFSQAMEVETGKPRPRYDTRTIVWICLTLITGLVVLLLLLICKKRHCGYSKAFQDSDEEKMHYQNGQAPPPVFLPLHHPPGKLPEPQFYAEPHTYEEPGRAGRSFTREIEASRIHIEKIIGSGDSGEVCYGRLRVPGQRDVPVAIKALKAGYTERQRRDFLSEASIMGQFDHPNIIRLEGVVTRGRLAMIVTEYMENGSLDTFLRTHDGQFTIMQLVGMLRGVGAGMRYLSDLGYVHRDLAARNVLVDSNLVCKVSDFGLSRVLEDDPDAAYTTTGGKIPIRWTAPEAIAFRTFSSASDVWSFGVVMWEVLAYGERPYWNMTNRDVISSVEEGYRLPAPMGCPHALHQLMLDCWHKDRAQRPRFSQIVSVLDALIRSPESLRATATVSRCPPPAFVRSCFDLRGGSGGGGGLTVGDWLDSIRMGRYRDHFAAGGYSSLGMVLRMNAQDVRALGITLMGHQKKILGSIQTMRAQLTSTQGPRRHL
Chain of PAK4 (human) (O96013 whole entry, looked up): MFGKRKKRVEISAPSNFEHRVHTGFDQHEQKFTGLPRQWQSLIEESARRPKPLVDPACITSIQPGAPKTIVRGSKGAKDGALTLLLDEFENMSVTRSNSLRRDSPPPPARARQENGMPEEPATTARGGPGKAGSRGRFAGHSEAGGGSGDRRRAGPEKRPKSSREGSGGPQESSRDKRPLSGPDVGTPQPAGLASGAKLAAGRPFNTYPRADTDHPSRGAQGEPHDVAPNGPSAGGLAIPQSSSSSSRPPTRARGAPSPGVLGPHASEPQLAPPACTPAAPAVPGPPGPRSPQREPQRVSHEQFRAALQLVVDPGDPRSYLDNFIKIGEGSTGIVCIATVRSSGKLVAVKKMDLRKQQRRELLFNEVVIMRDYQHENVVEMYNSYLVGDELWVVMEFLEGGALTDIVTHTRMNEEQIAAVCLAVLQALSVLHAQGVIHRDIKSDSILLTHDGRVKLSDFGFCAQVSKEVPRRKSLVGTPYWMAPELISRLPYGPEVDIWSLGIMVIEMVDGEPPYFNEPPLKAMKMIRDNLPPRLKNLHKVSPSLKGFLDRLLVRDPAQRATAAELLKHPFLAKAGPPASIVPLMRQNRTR
Chain of ULK1 (human) (O75385 whole entry, looked up): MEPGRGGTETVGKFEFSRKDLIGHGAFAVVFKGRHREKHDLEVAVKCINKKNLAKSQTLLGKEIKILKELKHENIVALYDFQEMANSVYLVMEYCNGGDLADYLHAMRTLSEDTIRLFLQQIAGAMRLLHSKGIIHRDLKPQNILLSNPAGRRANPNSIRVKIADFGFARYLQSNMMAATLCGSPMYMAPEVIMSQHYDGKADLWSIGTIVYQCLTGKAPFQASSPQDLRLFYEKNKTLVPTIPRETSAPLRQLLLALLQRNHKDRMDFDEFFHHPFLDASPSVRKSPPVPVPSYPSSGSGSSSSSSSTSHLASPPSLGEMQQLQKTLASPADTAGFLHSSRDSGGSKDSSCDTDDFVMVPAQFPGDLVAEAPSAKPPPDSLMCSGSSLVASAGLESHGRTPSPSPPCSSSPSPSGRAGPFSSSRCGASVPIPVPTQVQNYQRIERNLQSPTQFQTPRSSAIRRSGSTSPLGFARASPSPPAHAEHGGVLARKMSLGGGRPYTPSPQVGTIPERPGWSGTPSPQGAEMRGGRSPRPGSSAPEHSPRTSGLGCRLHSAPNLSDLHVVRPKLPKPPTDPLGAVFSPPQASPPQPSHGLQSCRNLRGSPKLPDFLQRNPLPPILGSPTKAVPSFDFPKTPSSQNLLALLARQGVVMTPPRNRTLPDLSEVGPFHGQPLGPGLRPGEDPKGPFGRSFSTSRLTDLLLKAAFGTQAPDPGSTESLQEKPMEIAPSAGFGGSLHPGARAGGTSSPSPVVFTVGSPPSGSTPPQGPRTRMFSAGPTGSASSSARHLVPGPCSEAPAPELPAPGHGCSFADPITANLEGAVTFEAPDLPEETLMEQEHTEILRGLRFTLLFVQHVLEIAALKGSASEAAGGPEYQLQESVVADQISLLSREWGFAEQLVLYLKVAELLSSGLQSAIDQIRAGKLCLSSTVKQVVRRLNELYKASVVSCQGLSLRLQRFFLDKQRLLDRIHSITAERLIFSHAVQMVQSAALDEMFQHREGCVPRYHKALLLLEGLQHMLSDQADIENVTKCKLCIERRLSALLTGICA
Chain of MAPK1 (human) (P28482 whole entry, looked up): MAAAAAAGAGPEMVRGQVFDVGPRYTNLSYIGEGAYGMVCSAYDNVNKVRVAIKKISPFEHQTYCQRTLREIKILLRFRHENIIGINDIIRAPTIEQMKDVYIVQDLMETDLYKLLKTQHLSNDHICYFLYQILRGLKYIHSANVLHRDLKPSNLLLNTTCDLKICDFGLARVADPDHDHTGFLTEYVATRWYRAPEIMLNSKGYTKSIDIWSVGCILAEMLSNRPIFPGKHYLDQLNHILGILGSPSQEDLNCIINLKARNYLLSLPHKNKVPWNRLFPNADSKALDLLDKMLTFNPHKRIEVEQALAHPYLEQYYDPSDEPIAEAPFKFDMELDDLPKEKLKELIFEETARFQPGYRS

- kinase still bound, per cent of control [1]: 4.6%
- kinase still bound, per cent of control (FLT3 (human)): 0.15%
- kinase still bound, per cent of control (FGFR4 (human)): 0.45%
- kinase still bound, per cent of control (CDK2 (human)): 11%
- kinase still bound, per cent of control [2]: 0%
- kinase still bound, per cent of control (SYK (human)): 6.2%
- kinase still bound, per cent of control (MYLK2 (human)): 8.4%
- kinase still bound, per cent of control (PTK6 (human)): 28%
- kinase still bound, per cent of control (PDGFRB (human)): 0%
- kinase still bound, per cent of control [3]: 1.2%
- kinase still bound, per cent of control (MAPK9 (human)): 0%
- kinase still bound, per cent of control [4]: 0.05%
- kinase still bound, per cent of control (MAPK14 (human)): 0%
- kinase still bound, per cent of control [5]: 11%
- kinase still bound, per cent of control (EPHA8 (human)): 0.1%
- kinase still bound, per cent of control (PTK2B (human)): 2.1%
- kinase still bound, per cent of control [6]: 15%
- kinase still bound, per cent of control (EGFR (human)): 5.6%
- kinase still bound, per cent of control (CDK18 (human)): 1.8%
Compound: CCN1CCN(Cc2ccc(NC(=O)c3ccc(C)c(Oc4ccnc5[nH]ccc45)c3)cc2C(F)(F)F)CC1

Compound: CCOc1cc(N2CCC(N3CCCCC3)CC2)ccc1Nc1nc(Nc2ccccc2S(=O)(=O)C(C)C)c2cn[nH]c2n1
- kinase still bound, per cent of control (PLK1 (human)): 47%
- kinase still bound, per cent of control (MAPK7 (human)): 0.9%
- kinase still bound, per cent of control (EIF2AK2 (human)): 100%
- kinase still bound, per cent of control [1]: 49%
- kinase still bound, per cent of control (CLK4 (human)): 5.2%
- kinase still bound, per cent of control (FLT3 (human)): 100%
- kinase still bound, per cent of control (ACVR2A (human)): 100%
- kinase still bound, per cent of control (NEK7 (human)): 100%
- kinase still bound, per cent of control (PIM3 (human)): 100%
- kinase still bound, per cent of control (FGFR4 (human)): 100%
- kinase still bound, per cent of control (MAPKAPK5 (human)): 100%
- kinase still bound, per cent of control (CDK2 (human)): 100%
- kinase still bound, per cent of control [2]: 100%
- kinase still bound, per cent of control (PAK4 (human)): 85%
- kinase still bound, per cent of control (SYK (human)): 100%
- kinase still bound, per cent of control (CAMKK1 (human)): 46%
- kinase still bound, per cent of control (SIK2 (human)): 85%
- kinase still bound, per cent of control (MYLK2 (human)): 100%
- kinase still bound, per cent of control (PRKCQ (human)): 100%
- kinase still bound, per cent of control (MELK (human)): 92%
- kinase still bound, per cent of control (AKT1 (human)): 100%
- kinase still bound, per cent of control (ULK1 (human)): 1.8%
- kinase still bound, per cent of control (EPHA6 (human)): 100%
- kinase still bound, per cent of control (BTK (human)): 32%
- kinase still bound, per cent of control (PTK6 (human)): 10%
- IC50 (MAPK1 (human)): 6.5 mM
- kinase still bound, per cent of control (MAPK1 (human)): 0.7%
- kinase still bound, per cent of control (PDGFRB (human)): 69%
- kinase still bound, per cent of control [3]: 74%
- kinase still bound, per cent of control (MAPK9 (human)): 22%
- kinase still bound, per cent of control [4]: 100%
- kinase still bound, per cent of control (AAK1 (human)): 69%
- kinase still bound, per cent of control (SRPK1 (human)): 100%
- kinase still bound, per cent of control (MAPK14 (human)): 98%
- kinase still bound, per cent of control (CLK1 (human)): 0.4%
- kinase still bound, per cent of control [5]: 1.3%
- kinase still bound, per cent of control (EPHA8 (human)): 100%
- kinase still bound, per cent of control (PTK2B (human)): 5%
- kinase still bound, per cent of control (RPS6KA1 KD1 (human)): 1.8%
- kinase still bound, per cent of control [6]: 7.7%
- kinase still bound, per cent of control (IGF1R (human)): 0.25%
- kinase still bound, per cent of control (EGFR (human)): 4.1%
- kinase still bound, per cent of control (CDK18 (human)): 100%

- kinase still bound, per cent of control (PLK1 (human)): 0.1%
- kinase still bound, per cent of control (MAPK7 (human)): 0%
- kinase still bound, per cent of control (EIF2AK2 (human)): 40%
- kinase still bound, per cent of control [1]: 1.4%
- kinase still bound, per cent of control (CLK4 (human)): 1.2%
- kinase still bound, per cent of control (ACVR2A (human)): 12%
- kinase still bound, per cent of control (NEK7 (human)): 3.8%
- kinase still bound, per cent of control (PIM3 (human)): 40%
- kinase still bound, per cent of control (MAPKAPK5 (human)): 40%
- kinase still bound, per cent of control (CDK2 (human)): 24%
- kinase still bound, per cent of control (PAK4 (human)): 9.6%
- kinase still bound, per cent of control (SYK (human)): 3.4%
- kinase still bound, per cent of control (CAMKK1 (human)): 0.2%
- kinase still bound, per cent of control (SIK2 (human)): 7.5%
- kinase still bound, per cent of control (MYLK2 (human)): 40%
- kinase still bound, per cent of control (PRKCQ (human)): 13%
- kinase still bound, per cent of control (MELK (human)): 0.95%
- kinase still bound, per cent of control (AKT1 (human)): 40%
- kinase still bound, per cent of control (ULK1 (human)): 0.1%
- kinase still bound, per cent of control (EPHA6 (human)): 3.1%
- kinase still bound, per cent of control (BTK (human)): 0%
- kinase still bound, per cent of control (PTK6 (human)): 0.15%
- kinase still bound, per cent of control (MAPK1 (human)): 0.3%
- kinase still bound, per cent of control (PDGFRB (human)): 0.25%
- kinase still bound, per cent of control (MAPK9 (human)): 12%
- kinase still bound, per cent of control [4]: 0.95%
- kinase still bound, per cent of control (AAK1 (human)): 2.8%
- kinase still bound, per cent of control (SRPK1 (human)): 2.2%
- kinase still bound, per cent of control (MAPK14 (human)): 40%
- kinase still bound, per cent of control (CLK1 (human)): 0.4%
- kinase still bound, per cent of control [5]: 4.2%
- kinase still bound, per cent of control (EPHA8 (human)): 40%
- kinase still bound, per cent of control (PTK2B (human)): 0%
- kinase still bound, per cent of control (RPS6KA1 KD1 (human)): 0.25%
- kinase still bound, per cent of control [6]: 0.15%
- kinase still bound, per cent of control (IGF1R (human)): 0%
- kinase still bound, per cent of control (EGFR (human)): 0.1%
- kinase still bound, per cent of control (CDK18 (human)): 40%
Compound: COc1cc(N2CCC(N3CCN(C)CC3)CC2)ccc1Nc1ncc(Cl)c(Nc2ccccc2S(=O)(=O)C(C)C)n1

Compound: CCN1CCN(Cc2ccc(NC(=O)c3ccc(C)c(/C=C/c4cnc(Nc5cc(N6CCNCC6)nc(C)n5)cn4)c3)cc2C(F)(F)F)CC1
- kinase still bound, per cent of control (PLK1 (human)): 100%
- kinase still bound, per cent of control (MAPK7 (human)): 100%
- kinase still bound, per cent of control (EIF2AK2 (human)): 80%
- kinase still bound, per cent of control [1]: 6.2%
- kinase still bound, per cent of control (CLK4 (human)): 31%
- kinase still bound, per cent of control (FLT3 (human)): 3.8%
- kinase still bound, per cent of control (ACVR2A (human)): 100%
- kinase still bound, per cent of control (NEK7 (human)): 100%
- kinase still bound, per cent of control (PIM3 (human)): 55%
- kinase still bound, per cent of control (FGFR4 (human)): 34%
- kinase still bound, per cent of control (MAPKAPK5 (human)): 80%
- kinase still bound, per cent of control (CDK2 (human)): 100%
- kinase still bound, per cent of control [2]: 0.2%
- kinase still bound, per cent of control (PAK4 (human)): 100%
- kinase still bound, per cent of control (SYK (human)): 15%
- kinase still bound, per cent of control (CAMKK1 (human)): 98%
- kinase still bound, per cent of control (SIK2 (human)): 61%
- kinase still bound, per cent of control (MYLK2 (human)): 3.8%
- kinase still bound, per cent of control (PRKCQ (human)): 81%
- kinase still bound, per cent of control (MELK (human)): 25%
- kinase still bound, per cent of control (AKT1 (human)): 100%
- kinase still bound, per cent of control (ULK1 (human)): 83%
- kinase still bound, per cent of control (EPHA6 (human)): 51%
- kinase still bound, per cent of control (BTK (human)): 0.2%
- kinase still bound, per cent of control (PTK6 (human)): 91%
- kinase still bound, per cent of control (MAPK1 (human)): 100%
- kinase still bound, per cent of control (PDGFRB (human)): 0%
- kinase still bound, per cent of control [3]: 2.4%
- kinase still bound, per cent of control (MAPK9 (human)): 0.7%
- kinase still bound, per cent of control [4]: 14%
- kinase still bound, per cent of control (AAK1 (human)): 84%
- kinase still bound, per cent of control (SRPK1 (human)): 77%
- kinase still bound, per cent of control (MAPK14 (human)): 4.6%
- kinase still bound, per cent of control (CLK1 (human)): 29%
- kinase still bound, per cent of control [5]: 94%
- kinase still bound, per cent of control (EPHA8 (human)): 0.35%
- kinase still bound, per cent of control (PTK2B (human)): 36%
- kinase still bound, per cent of control (RPS6KA1 KD1 (human)): 100%
- kinase still bound, per cent of control [6]: 0.85%
- kinase still bound, per cent of control (IGF1R (human)): 87%
- kinase still bound, per cent of control (EGFR (human)): 12%
- kinase still bound, per cent of control (CDK18 (human)): 81%
